According to PMC10180488, “Novel Derivatives of Eugenol as a New Class of PPARγ Agonists in Treating Inflammation: Design, Synthesis, SAR Analysis and In Vitro Anti-Inflammatory Activity” (Molecules, 2023):
Several values for one entry are separate records, joined by “and”; a condition that tells them apart may be missing. Equal values may be shown once.

What was measured:
human PPARγ- LBD = target: T1, human PPARγ- LBD (Homo sapiens, UniProt P37231); experiment: Lanthascreen TR-FRET PPARγ competitive binding assay; conditions: for IC50: Lanthascreen TR-FRET competitive binding; for Raw Data / Raw Data - Background: TR-FRET
T1 construct: a mixture of a human PPARγ- LBD labelled with glutathione S-transferase (GST)
T1 sequence (P37231 238-503 limits assumed): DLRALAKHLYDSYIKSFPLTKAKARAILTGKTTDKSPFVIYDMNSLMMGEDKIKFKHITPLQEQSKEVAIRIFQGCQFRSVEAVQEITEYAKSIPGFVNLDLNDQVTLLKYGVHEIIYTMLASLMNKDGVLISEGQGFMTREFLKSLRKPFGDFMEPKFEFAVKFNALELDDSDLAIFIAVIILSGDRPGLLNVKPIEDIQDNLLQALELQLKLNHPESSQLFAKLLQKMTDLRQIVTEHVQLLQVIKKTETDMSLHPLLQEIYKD
Experimental: Using the Lanthasreen TR-FRET assay, the synthesized compounds were first preliminary tested for the PPARγ binding affinity. […] A chemical under test displaces the tracer from PPAR-LBD, which lowers the TR-FRET ratio and decreases the FRET signal Figure 8 [33].
A multimode low-volume proxy plate reader was used to read the plates after one hour of incubation. Then, a mixture of a human PPARγ- LBD labelled with glutathione S-transferase (GST), a fluorescent small pan-PPAR ligand (FluormoneTM Pan-PPAR Green), and terbium-labeled anti-GST antibody was added.

egg albumin = egg albumin (Gallus gallus, UniProt P01012); experiment: Albumin denaturation assay; format: biochemical, hen; conditions: mean ± SD (n = 3), read-out: Percentage inhibition of denaturation of albumin
Sequence of egg albumin (P01012 2-386): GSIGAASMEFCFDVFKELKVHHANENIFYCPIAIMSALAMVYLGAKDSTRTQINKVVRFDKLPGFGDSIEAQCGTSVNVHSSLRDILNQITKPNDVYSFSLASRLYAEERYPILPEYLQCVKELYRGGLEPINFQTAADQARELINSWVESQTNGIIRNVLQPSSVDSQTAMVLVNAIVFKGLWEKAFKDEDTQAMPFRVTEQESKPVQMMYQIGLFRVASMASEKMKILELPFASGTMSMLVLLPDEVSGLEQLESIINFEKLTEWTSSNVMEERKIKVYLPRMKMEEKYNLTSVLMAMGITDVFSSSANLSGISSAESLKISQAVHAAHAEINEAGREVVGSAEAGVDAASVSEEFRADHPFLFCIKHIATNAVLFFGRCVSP
Experimental: Inflammation is accompanied by protein denaturation. Tissue protein denaturation is a well-established cause of Inflammatory illnesses. Inflammatory disorders including rheumatoid arthritis, diabetes, and cancer have been linked to the denaturation of proteins. The ability of a substance to stop proteins from becoming denaturized has a role in the prevention of inflammatory disorders. […] Denaturation of proteins is accomplished by keeping the reaction mixture in a water bath at 70 °C for […].
Minor modifications were made to Mizushima and Kobayashi’s and Sakat et al. methodologies. The reaction mixture containing 0.2 mL of egg albumin (from a fresh hen’s egg) is mixed with 2.8 mL of phosphate-buffered saline (PBS, pH 6.4) and 2 mL of synthesized compounds in varying concentrations. The mixture was then heated at 70 °C for 5 min after being incubated at 37 °C for approximately 15–20 min. After cooling, their absorbance was measured at 660 nm spectrometrically. Three duplicates of the experiment were carried out. […] Percentage inhibition = (OD control − OD sample/OD control) × 100

[1] = tested on: human red blood cells (HRBC); experiment: HRBC membrane stabilization method; conditions: for HRBC membrane stabilization (percentage protection against HRBC lysis): mean ± SD (n = 3); for IC50: Homo sapiens, Erythrocyte, read-out: IC50 Values, HRBC membrane stabilization method
Experimental: The principle of this procedure is to stabilize the membrane of human red blood cells by hypotonic membrane lysis. […] Lysosomal enzyme levels typically decrease as the HRBC membrane is stabilized.
The packed cells in this blood solution were separated after centrifugation at 3000 rpm [41]. The packed cells were cleaned using an isosaline solution, and then, isosaline was used to prepare a 10% v/v suspension. This HRBC suspension was employed to estimate its anti-inflammatory properties. Different concentrations of the synthesized compounds and the reference standard were each combined with 1 mL of phosphate buffer (pH 7.4), 2 mL of hyposaline, and 0.5 mL of HRBC solution. A total of 2.0 mL of distilled water was utilized as the control. The assay mixtures were all centrifuged at 3000 rpm after 30 min of incubation at 37°C. The following formula was used to determine the percentage of stabilized HRBC membranes. Percentage protection= 100 − (OD sample/OD control) × 100

Structure (SMILES) | IC50 (human PPARγ- LBD) | Raw Data (human PPARγ- LBD; 0.0000512 µM) | Raw Data - Background (human PPARγ- LBD; 0.0000512 µM) | Raw Data (human PPARγ- LBD; 0.000256 µM) | Raw Data - Background (human PPARγ- LBD; 0.000256 µM) | Raw Data (human PPARγ- LBD; 0.00128 µM) | Raw Data - Background (human PPARγ- LBD; 0.00128 µM) | Raw Data (human PPARγ- LBD; 0.0064 µM) | Raw Data - Background (human PPARγ- LBD; 0.0064 µM) | Raw Data (human PPARγ- LBD; 0.032 µM) | Raw Data - Background (human PPARγ- LBD; 0.032 µM) | Raw Data (human PPARγ- LBD; 0.16 µM) | Raw Data - Background (human PPARγ- LBD; 0.16 µM) | Raw Data (human PPARγ- LBD; 0.8 µM) | Raw Data - Background (human PPARγ- LBD; 0.8 µM) | Raw Data (human PPARγ- LBD; 4 µM) | Raw Data - Background (human PPARγ- LBD; 4 µM) | Raw Data (human PPARγ- LBD; 20 µM) | Raw Data - Background (human PPARγ- LBD; 20 µM) | Raw Data (human PPARγ- LBD; 100 µM) | further results
C=CCc1ccc(OCC(=O)Nc2ccccc2)c(OC)c1 [Compound 1a, 2-(4-Alyl-2-methoxyphenoxy)-N-phenylacetamide] | 29.8 µM | 1.916 RLU | 1.681 RLU | 1.915 RLU | 1.68 RLU | 1.916 RLU | 1.681 RLU | 1.92 RLU | 1.685 RLU | 2.058 RLU | 1.823 RLU | 1.971 RLU | 1.736 RLU | 1.899 RLU | 1.664 RLU | 1.717 RLU | 1.483 RLU | 1.047 RLU | 0.813 RLU | 0.245 RLU | Raw Data - Background (human PPARγ- LBD; 100 µM): 0.01 RLU; inhibition at 6.25 µM (egg albumin): 1.67 ± 0.37%; inhibition at 12.5 µM (egg albumin): 5.32 ± 0.37%; inhibition at 25 µM (egg albumin): 10.2 ± 0.24%; inhibition at 50 µM (egg albumin): 14.5 ± 0.43%; inhibition at 100 µM (egg albumin): 19.2 ± 0.24%; inhibition at 200 µM (egg albumin): 25.1 ± 0.31%; inhibition at 400 µM (egg albumin): 32.3 ± 0.37%; HRBC membrane stabilization (percentage protection against HRBC lysis) ([1]; 6.25 µM): 4.79 ± 0.48%; HRBC membrane stabilization (percentage protection against HRBC lysis) ([1]; 12.5 µM): 10.45 ± 0.38%; HRBC membrane stabilization (percentage protection against HRBC lysis) ([1]; 25 µM): 21.40 ± 0.36%; HRBC membrane stabilization (percentage protection against HRBC lysis) ([1]; 50 µM): 28.78 ± 0.66%; HRBC membrane stabilization (percentage protection against HRBC lysis) ([1]; 100 µM): 37.88 ± 0.28%; HRBC membrane stabilization (percentage protection against HRBC lysis) ([1]; 200 µM): 47.23 ± 0.48%; HRBC membrane stabilization (percentage protection against HRBC lysis) ([1]; 400 µM): 60.88% and 60.88 ± 0.36%; IC50 [1]: 79.5 µM
C=CCc1ccc(OCC(=O)Nc2ccc([N+](=O)[O-])cc2)c(OC)c1 [Compound 1b, 2-(4-Allyl-2-methoxyphenoxy)-N-(4-nitrophenyl)acetamide] | 42.4 µM | 2.014 RLU | 1.767 RLU | 1.849 RLU | 1.755 RLU | 1.865 RLU | 1.732 RLU | 1.857 RLU | 1.671 RLU | 1.859 RLU | 1.568 RLU | 1.896 RLU | 1.724 RLU | 2.012 RLU | 1.756 RLU | 1.779 RLU | 1.596 RLU | 1.199 RLU | 1.025 RLU | 0.421 RLU | Raw Data - Background (human PPARγ- LBD; 100 µM): 0.2685 RLU; inhibition at 6.25 µM (egg albumin): 2.06 ± 0.17%; inhibition at 12.5 µM (egg albumin): 4.44 ± 0.36%; inhibition at 25 µM (egg albumin): 8.42 ± 0.24%; inhibition at 50 µM (egg albumin): 13.4 ± 0.24%; inhibition at 100 µM (egg albumin): 17.6 ± 0.18%; inhibition at 200 µM (egg albumin): 21.2 ± 0.3%; inhibition at 400 µM (egg albumin): 32.2 ± 0.4%; HRBC membrane stabilization (percentage protection against HRBC lysis) ([1]; 6.25 µM): 3.19 ± 0.28%; HRBC membrane stabilization (percentage protection against HRBC lysis) ([1]; 12.5 µM): 9.10 ± 0.28%; HRBC membrane stabilization (percentage protection against HRBC lysis) ([1]; 25 µM): 15.55 ± 0.28%; HRBC membrane stabilization (percentage protection against HRBC lysis) ([1]; 50 µM): 27.49 ± 0.36%; HRBC membrane stabilization (percentage protection against HRBC lysis) ([1]; 100 µM): 36.16 ± 0.48%; HRBC membrane stabilization (percentage protection against HRBC lysis) ([1]; 200 µM): 45.07 ± 0.28%; HRBC membrane stabilization (percentage protection against HRBC lysis) ([1]; 400 µM): 58.36 ± 0.28%; IC50 [1]: 83.2 µM
